Data from US7820640B2, “Methods for treating hearing loss” (Sound Pharmaceuticals Incorporated, priority 2002, dated 2010).
Several values for one entry are separate records, joined by “and”; a condition that tells them apart may be missing. Identical values can stand only once.

How the values were obtained:
Assay type in all cases: in vivo, rat
[1] = system: Fisher-344 rats exposed to 110-115 dB noise at 4-16 kHz for 4 hours; experiment: ABR permanent threshold shift, ebselen and allopurinol alone or combined (Example 2); conditions: for difference in ABR threshold shifts between control and treated rats: 16 mg/kg individually, combination 8 mg/kg each, highly significant = p<0.01; for protection from both temporary and permanent thresholds shifts: ABR, rats exposed to noise, alone or in combination; for reductions in PTS compared with controls: three weeks after noise exposure, intra-peritoneal injection at 16 mg/kg individually
Experimental: Noise exposure paradigm: 8-10 week old female Fisher-344 rats were exposed to 110-115 dB noise at 4-16 kHz for 4 hours.
Physiologic analyses: ABR generated with a click stimulus (broad spectrum stimulus, 4-16 kHz), and with tone stimuli at frequencies of 4 kHz, 8 kHz, 12 kHz, and 16 kHz, was measured in 5 dB intervals, as described in EXAMPLE 1. Animals were tested before and at 3 weeks post noise exposure to assess PTS.
Dosing of compounds: Ebselen was dissolved at 4 mg/ml in 10% DMSO and allopurinol was dissolved at 4 mg/ml in water. Ebselen and allopurinol were administered to rats at an individual dose of 16 mg/kg or at a combined dose of 8 mg/kg each. About 0.5 ml of ebselen solution, allopurinol solution, or ebselen/allopurinol solution was injected intra-peritoneally or delivered by oral gavage twice daily the day prior to, the day of, and the day following exposure to noise. Control animals were dosed on an identical schedule with vehicle only.
(§1) Statistical analysis: All experiments were performed with four rats per study group, and measuring each ear independently before and after noise exposure. Data was collected in blinded studies. Statistical analyses were performed by ANOVA between study groups.

[2] = system: Fisher-344 rats exposed to 110-115 dB noise at 4-16 kHz for 4 hours; experiment: ABR threshold shift after a single noise exposure (Example 1); conditions: for difference in ABR threshold shifts between control and treated rats: 4-16 kHz click stimulus, ebselen 16 mg/kg
Experimental: (§2) Noise exposure paradigm: 8-week old female Fisher-344 rats were exposed to 110-115 dB noise at 4-16 kHz for 4 hours.
Physiologic analyses: The auditory evoked brainstem response (ABR) was used to assess hearing in each ear in each animal before and after exposure to noise using equipment from Intelligent Hearings System. ABR generated with a click stimulus (broad spectrum stimulus, 4-16 kHz) was measured in 5 dB intervals. Animals were re-evaluated evaluated at 1 day, 1 week, 2 weeks, and 3 weeks post noise exposure. ABR changes measured 1 day post noise exposure are considered to represent a temporary threshold shift (TTS); ABR changes measured 3 weeks post noise exposure are considered to represent a permanent threshold shift (PTS).
(§3) Dosing of Otoprotectants: Ebselen was dissolved at 4 mg/mL in 10% DMSO and administered to rats at 16 mg/kg. N-acetyl-cysteine was dissolved at 100 mg/mL in saline and was administered to rats at 325 mg/kg. About 0.5 ml of ebselen solution or N-acetyl-cysteine solution was injected intra-peritoneally or delivered by oral gavage twice daily the day prior to, the day of, and the day following exposure to noise. Control animals were dosed on an identical schedule with vehicle (10% DMSO) only.
Statistical analysis: All experiments were performed with four rats per study group, and measuring each ear independently before and after noise exposure. Data was collected in blinded studies. Statistical analyses were performed by analysis of variance (ANOVA) between study groups.

[3] = system: outer hair cells in cochlea of noise-exposed Fisher-344 rats; experiment: Cochlear hair cell counts after noise exposure (Example 1); conditions: for physiologic protection from noise-induced hearing loss and hair cell loss: Example 1 conclusion, ebselen 16 mg/kg, N-acetyl-cysteine 325 mg/kg
Experimental: as §2
Morphologic analyses: Hair cell counts in cochlea from test animals following noise exposure and physiologic evaluation using ABR were determined by carefully dissecting cochlea to obtain inner ear sensory epithelia. The tissues were stained with fluorescein-labeled phalloidin (specific for actin filaments, which are abundant in hair cells) and 4,6-diamidino-2-phenylindole (DAPI; specific for the DNA in the nucleus in cells). Samples were then mounted on microscope slides and viewed with epifluorescence to determine the extent of hair cell loss and retention. The correlation between physiologic data (ABR) and morphological data (hair cell counts) allows for confirmation of the protective effects of otoprotectants of the invention.
as §3

[4] = system: Fisher-344 rats exposed to 110 dB noise at 4-16 kHz for 4 hours two times three weeks apart; experiment: ABR threshold shift after repeated noise exposure (Example 3); conditions: 16 mg/kg; for difference in ABR threshold shifts between control and treated rats: 3 weeks after two exposures to 110 dB noise
Experimental: (§4) Noise exposure paradigm: 8-week old female Fisher-344 rats were exposed to 110 dB noise at 4-16 kHz for 4 hours two times three weeks apart.
Physiologic analyses: ABR generated with tone stimuli at frequencies of 4 kHz, 8 kHz, 12 kHz, and 16 kHz, was measured in 5 dB intervals, as described in EXAMPLE 1. […]
(§5) Dosing of Ebselen: Ebselen was dissolved at 4 mg/mL in 10% DMSO and administered to rats at a dose of 16 mg/kg. About 0.5 ml of ebselen solution was injected intra-peritoneally or delivered by oral gavage twice daily the day prior to, the day of, and the day following each exposure to noise. Control animals were dosed on an identical schedule with vehicle only.
as §1

[5] = system: outer hair cells in cochlea of repeatedly noise-exposed Fisher-344 rats; experiment: Cochlear hair cell counts after repeated noise exposure (Example 3); conditions: 16 mg/kg
Experimental: as §4
Morphologic analyses: Hair cell counts in cochlea from test animals following noise exposure and physiologic evaluation using ABR were determined as described in EXAMPLE 1.
as §5

[6] = 4 kHz stimulus, 3 weeks after noise
[7] = click stimulus, 3 weeks after 115 dB, 4-16 kHz noise for 4 h
[8] = 1 week post noise, N-acetyl-cysteine 325 mg/kg, highly significant = p<0.01, significant = p<0.05
[9] = 2 weeks post noise, N-acetyl-cysteine 325 mg/kg, highly significant = p<0.01, significant = p<0.05
[10] = 3 weeks post noise, N-acetyl-cysteine 325 mg/kg, significant = p<0.05
[11] = 1 day post noise (115 dB, 4-16 kHz, 4 h), N-acetyl-cysteine 325 mg/kg twice daily, highly significant = p<0.01, significant = p<0.05

Row | Structure (SMILES) | difference in ABR threshold shifts between control and treated rats [1, 6] | protection from both temporary and permanent thresholds shifts [1] | difference in ABR threshold shifts between control and treated rats [1, 7] | reductions in PTS compared with controls [1] | difference in ABR threshold shifts between control and treated rats [2, 8] | difference in ABR threshold shifts between control and treated rats [2, 9] | difference in ABR threshold shifts between control and treated rats [2, 10] | difference in ABR threshold shifts between control and treated rats [2, 11] | physiologic protection from noise-induced hearing loss and hair cell loss [3] | also measured
1 | Oc1ncnc2[nH]ncc12 [allopurinol, 4-hydroxypyrazolo[3,4-d]pyrimidine] | highly significant | significant protection | highly significant | significant reductions |  |  |  |  |  | difference in ABR threshold shifts between control and treated rats ([1]; 16 kHz stimulus, 3 weeks after noise): highly significant; protection from noise-induced hearing loss and hair cell loss ([1]; statement in Example 1 referring to EXAMPLE 2): provide protection
2 | CC(=O)N[C@@H](CS)C(=O)O [N-acetyl-cysteine, N-acetyl-L-Cysteine] |  |  |  |  | significant | significant | significant | significant | physiologic protection | reduction in TTS ([2]; click stimulus, all time points after noise exposure, 325 mg/kg): significant reduction
3 | O=c1c2ccccc2[se]n1-c1ccccc1 [ebselen, 2-phenyl-1,2-benzoisoselenazol-3(2H)-one] | highly significant | significant protection | highly significant | significant reductions | highly significant | highly significant | significant | highly significant | physiologic protection | reduction in TTS and PTS compared to control animals (fold) ([2]; click stimulus, 16 mg/kg): at least two-fold; reduction in TTS (temporary threshold shift) compared with controls ([2]; click stimulus, one day after noise exposure, 16 mg/kg): highly significant reduction; reduction in PTS (permanent threshold shift) compared with controls ([2]; click stimulus, three weeks after noise exposure, 16 mg/kg): significant reduction; PTS of a treated animal ([2]; single ebselen-treated animal, control animal 15 dB PTS): 0 dB; preservation of outer hair cells ([3]; after noise exposure, control animal had almost complete loss of outer hair cells): preservation of most outer hair cells; difference in ABR threshold shifts between control and treated rats ([4]; 8 kHz stimulus, p<0.01): highly significant; difference in ABR threshold shifts between control and treated rats ([4]; 16 kHz stimulus, p<0.05): significant; reduction in TTS compared with controls ([4]; 1 day after repeated noise exposures): significant reduction; PTS compared to controls ([4]; three weeks after repeated noise exposures): significantly reduced; number of outer hair cells lost ([5]; individual rats B and D, two exposures to 110 dB noise, control rats A and C lost 401 and 246): 90 and 56; hair cell loss in cochlea compared to the control group ([5]; repeated noise exposure): less hair cell loss
